Publication PMC5118709, “Identification of Polo-like kinase 1 interaction inhibitors using a novel cell-based assay” (Scientific Reports, 2016)
“And” between values parts separate entries of the source, which are not always exact repeats. Identical values can stand only once. Like-named read-outs stand apart in the source and are kept apart here.

Legend:
HeLa cells [1] = test: mitotic defect phenotypes by immunofluorescence; format: cell-based; conditions: 10 nM, 7 h
Experimental: HeLa cells were treated with these compounds along with the known PBD inhibitors PPG, TQ, Poloxin and the KD inhibitor BI2536 as controls, and then stained against α-Tubulin, pericentrin (a centrosome marker) and DNA (Fig. 2D). In all cases, there was a marked increase in the frequency of disorganized spindles compared with DMSO-treated control cells. This is expected as Plk1 plays multiple roles in spindle assembly and maintenance. […] Cpd 69, an analog of compound 122, induced a similar phenotype at lower concentrations (data not shown). This phenotype was not seen after treatment with BI2536.
For the mitotic defect phenotypes, 25 200 HeLa cells were plated on poly-L-lysine coated round cover slips in 24-well plates. The day after, cells were treated for 7 hours, and then washed with PHEM buffer at 37 °C before fixation in PHEM buffer containing 4% formaldehyde for 20 minutes at 37 °C. Cells were washed three times with TBS-tween 0.1% and plate was kept overnight at 4 °C. Next steps were followed as previously described except that coverslips were incubated in a dark wet chamber with antibodies. Anti-pericentrin (diluted 1:1000; Abcam), anti-α-tubulin DM1A (diluted 1:500; Sigma-Aldrich), Alexa Fluor 488 anti-rabbit and Texas-Red anti-mouse (diluted 1:200; Invitrogen) were used. Coverslips were mounted on slide using Vectashield media containing DAPI (Vector Laboratories).
Images shown in Fig. 2D were acquired on an AxioImager microscope (Carl Zeiss) with a 100x oil objective (NA 1.4 DICIII) and an AxioCam HRM camera (Carl Zeiss) using AxioVision software (Carl Zeiss).

CRAF-BRAF = biological target: T1, CRAF-BRAF (Homo sapiens, UniProt P04049+P15056); test: control BRET CRAF-BRAF (transient); format: cell-based; conditions: for Primary screen CRAF-BRAF (transient) % Inihibition / Primary screen CRAF-BRAF (transient) % Quench RLuc: 10-25 μM; for Confirmation CRAF-BRAF (transient) % Inihibition / Confirmation CRAF-BRAF (transient) % Quench RLuc: confirmation screen
T1 construct: expressed in transfected cells; host or cells: HEK293T, transient transfection with PEI
Experimental: (§1) We used our cell-based assay to screen a library of 112 983 compounds available in-house at IRIC’s High-Throughput Screening (HTS) platform (see Materials & Methods). Compounds were tested on cells in 384-well plates at concentrations between 10 μM and 25 μM, depending on their concentration in the original stocks solutions. BRET readings were taken 2 hours after treatment. Results obtained show a tight, close to normal distribution centered around zero inhibition relative to DMSO-treated controls (Fig. 1D). Compounds inducing at least 30% BRET inhibition were selected. From these, auto-fluorescent compounds and those that induced more than 90% reduction in RLucII luminescence were removed, leaving 800 primary hits, that we then re-tested using the same assay. In parallel, we tested these compounds in a control BRET assay for an unrelated pair of interacting proteins (BRAF-CRAF[46]) to exclude false-positive compounds that could reduce the BRET signal by interfering with light or by modifying the activity of GFP or Luc.
(§2) For the confirmation screen, the same procedure as for the primary screen was followed, except that HEK293T cells were also seeded at 6.25 millions of cells per simple CellStack on day 1 for transient transfections. These cells were transfected on day 3 with Luc-Map (5 μg) and Plk1-GFP (25 μg) pIRESHyg3 plasmids using polyethylenimine (PEI). To identify false-positives compounds, Luc-CRAF (4 μg) and GFP-BRAF (20 μg) plasmids were also transfected with PEI following the published procedure.

HeLa cells [2] = test: mitotic index assay (phospho-Histone H3) in HeLa cells; format: cell-based; conditions: 10-25 μM, 7 h
Plk1-Map interaction [3] = biological target: T2, Plk1-Map interaction (Homo sapiens, UniProt P53350); test: LUMIER co-immunoprecipitation assay Plk1-Map; conditions: for Average-Beads (mean luminescence) / Co-IP Values relative to top in plate column = 1 / Luminescence on beads, duplicate wells: 10-25 μM, 2 h; for Relative Luminescence Unit: mean divided by maximum mean of the compounds; for Luminescence on beads, duplicate wells: raw data
Experimental: After cell lysis, GFP-Plk1 was immunoprecipitated and co-purified Map-Luc was measured by luminescence following addition of the luciferase substrate, coelenterazine.
Half a million stably transfected Map205-RLucII/GFP10-Plk1 cells in Tyrode solution were seeded per well in a 96-well plate and allowed to settle for 30 min at 37 °C. […] Plates were then centrifuged at 4 °C at 3000 rpm for 5 minutes to pellet cells. Cells were then lysed with the IP buffer (20 mM Tris pH 7.5, 150 mM NaCl, 2 mM EGTA, 0.5% NP-40, 1 mM DTT, PMSF, aprotinin and leupeptin) and incubated on ice for 20 minutes. Plates were centrifuged again at 4 °C at 3400 rpm for 10 minutes, and the soluble fraction was transferred into a new 96-well plate. Note that 10 μl of this fraction was transferred in white 96-well plates from which the luminescence was read as a measure of the input amount of cell lysate for the co-IP. GFP-Plk1 was immunoprecipitated by adding 0.35 μl of anti-GFP antibody (Invitrogen). Plates were sealed and incubated on a rotator at 4 °C for 30 minutes. Then, 4 μl of pre-washed protein A magnetic beads (Invitrogen) were added to each well. Plates were sealed and incubated at 4 °C for 1h30. The extracts + beads were then transferred in a 96-well PCR plates and beads were washed 3 times with the IP buffer using a magnetic 96-well rack. The fourth wash was done in Tyrode solution, then beads were re-suspended with it and transferred in a white 96-well plate. […] Tyrode was also added to the plates containing the input fraction, then Coelenterazine h was added to the wells, and enhanced luminescence was read as described above.

GST-PBD367-603 of Plk1 = GST-PBD367-603 of Plk1 (Homo sapiens, UniProt P53350); test: fluorescence polarization assay PBD-phosphopeptide
Experimental: In this assay, an optimal phosphopeptide for PBD binding is coupled with a FITC fluorophore and its binding to purified recombinant PBD of Plk1 is monitored by the change in polarization of incident light.
The FP buffer was composed of 10 mM Tris pH 8.0, 50 mM NaCl, 1 mM EDTA, 20% glycerol and 0.1% NP-40. The peptide (final concentration 10 nM) was always added to the wells of non-binding, black, 384-well plates, 1 hour after the addition of the protein with the buffer (+/− treatment, 10% DMSO). […] EC65s were used to perform the competitive assays with the non-labeled peptides and with the inhibitors. FP Inhibition was calculated with the formula: 100 − [((mPsample − mPfree peptide)\(mPDMSO − mPfree peptide)) × 100]. […] (Map peptide), and corresponding non-labeled peptides are identical but without FITC in N-terminal. […] Inhibition curves were fitted with GraphPad (Prism software).

Plk1-Map interaction [4] = biological target: T2, Plk1-Map interaction; test: BRET Plk1-Map, stable HEK293T Plk1-Luc/GFP-Map cell line; format: cell-based; parameters: cDNAs for the human full length Plk1; expressed in transfected cells; conditions: for Primary screen Plk1-Map (stable) % Inihibition / Primary screen Plk1-Map (stable) % Quench RLuc: 10-25 μM, 2 h; for Confirmation Plk1-Map (stable) % Inihibition / Confirmation Plk1-Map (stable) % Quench RLuc: confirmation screen
Description: To develop a cell-based assay for the identification of Plk1 interaction inhibitors, we used Bioluminescence Resonance Energy Transfer (BRET)[42][43]. The assay monitors the interaction in HEK293T cells between Plk1 and Map205, a protein that we previously identified as an interactor of Drosophila Polo (Plk1 ortholog) on its PBD[44]. Although no ortholog of Drosophila Map205 has been found in vertebrates, this protein robustly interacts with vertebrate Plk1. […] Importantly, crystallography with zebrafish Plk1 has recently shown that Map205 nevertheless docks in the canonical phosphopeptide binding site of the PBD, with the natural phospho-mimetic Glu314 residue (Fig. 1A)[45]. In our assay, human Plk1 and a fragment of Drosophila Map205 (Map205_254-416 = Map) are respectively fused to Renilla luciferase II (Luc) and GFP10 (GFP), giving rise to energy transfer when the proteins are in close proximity (Fig. 1B). […] All combinations of Plk1 and Map tagged with Luc and GFP were tested (Supplementary Fig. S1). The Plk1-Luc/GFP-Map combination was selected because it yielded the highest BRET dynamic window. We then generated clonal stable cell lines co-expressing these two fusion proteins. These cell lines behaved very similarly to each other in BRET, and we selected one line that gave a high and reproducible BRET signal, with a Z′ score of 0.78, indicative of a robust assay for the purpose of a chemical screen (Supplementary Fig. S1).
as §1
For BRET on transiently transfected cells, 48 hours after the transfection, medium was removed, cells were washed twice with PBS, and then Tyrode solution (140 mM NaCl, 2.7 mM KCl, 12 mM NaHCO3, 5.6 mM D-glucose, 0.49 mM MgCl2, 0.37 mM NaH2PO4, 25 mM HEPES, pH 7.4, where 1 mM CaCl2 was freshly added) was added to the cells. Total fluorescence was first measured using a FlexStation II microplate reader (Molecular Devices), where the GFP10 was excited at 400 nm and read at 510 nm. Then, cells were treated for 5 minutes with 2.5 μM coelenterazine 400a (Gold Technology) before reading BRET2 using the Mithras LB940 microplate reader (Berthold Technologies). BRET2 signal corresponds to the light emitted by the GFP10 acceptor constructs (515 nm ± 20 nm) divided by the light emitted by the RlucII donor constructs (400 nm ± 70 nm). Net BRET2 was calculated by subtracting the background BRET ratio of the RLucII plasmid alone from the BRET ratio obtained by the two BRET partners. The Net BRET2 was plotted according to the GFP10/RLucII ratio, which was obtained by dividing the total fluorescence by the RLucII emission.
For the high throughput chemical screen, cells were amplified and frozen as multiple 1 ml aliquots containing 25 millions of stable HEK293T Plk1-Luc/GFP-Map cells to ensure that cells at the same passage number are used during the screen. […] Five days later, cells were counted and re-suspended in Tyrode solution. […]

Plk1-Map interaction [5] = biological target: T2, Plk1-Map interaction; test: BRET Plk1-Map, transient Luc-Map/Plk1-GFP in HEK293T; format: cell-based; parameters: cDNAs for the human full length Plk1; expressed in transfected cells; conditions: confirmation screen
Experimental: as §2

T2 sequence (P53350 whole entry): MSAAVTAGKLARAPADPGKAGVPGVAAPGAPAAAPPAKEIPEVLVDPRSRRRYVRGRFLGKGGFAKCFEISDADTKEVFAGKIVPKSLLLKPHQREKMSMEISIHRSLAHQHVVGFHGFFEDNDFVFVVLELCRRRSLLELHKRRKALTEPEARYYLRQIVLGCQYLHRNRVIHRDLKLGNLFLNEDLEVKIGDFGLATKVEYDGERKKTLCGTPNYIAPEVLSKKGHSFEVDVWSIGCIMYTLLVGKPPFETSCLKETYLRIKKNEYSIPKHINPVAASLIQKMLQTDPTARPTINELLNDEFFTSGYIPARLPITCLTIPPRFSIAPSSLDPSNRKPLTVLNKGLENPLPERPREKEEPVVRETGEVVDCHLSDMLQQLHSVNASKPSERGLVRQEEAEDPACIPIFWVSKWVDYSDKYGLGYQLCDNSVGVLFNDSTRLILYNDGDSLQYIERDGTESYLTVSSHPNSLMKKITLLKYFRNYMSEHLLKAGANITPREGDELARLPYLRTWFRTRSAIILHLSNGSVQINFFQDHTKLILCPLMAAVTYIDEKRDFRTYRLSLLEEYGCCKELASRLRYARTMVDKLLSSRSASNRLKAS
T1 sequence (P04049 whole entry): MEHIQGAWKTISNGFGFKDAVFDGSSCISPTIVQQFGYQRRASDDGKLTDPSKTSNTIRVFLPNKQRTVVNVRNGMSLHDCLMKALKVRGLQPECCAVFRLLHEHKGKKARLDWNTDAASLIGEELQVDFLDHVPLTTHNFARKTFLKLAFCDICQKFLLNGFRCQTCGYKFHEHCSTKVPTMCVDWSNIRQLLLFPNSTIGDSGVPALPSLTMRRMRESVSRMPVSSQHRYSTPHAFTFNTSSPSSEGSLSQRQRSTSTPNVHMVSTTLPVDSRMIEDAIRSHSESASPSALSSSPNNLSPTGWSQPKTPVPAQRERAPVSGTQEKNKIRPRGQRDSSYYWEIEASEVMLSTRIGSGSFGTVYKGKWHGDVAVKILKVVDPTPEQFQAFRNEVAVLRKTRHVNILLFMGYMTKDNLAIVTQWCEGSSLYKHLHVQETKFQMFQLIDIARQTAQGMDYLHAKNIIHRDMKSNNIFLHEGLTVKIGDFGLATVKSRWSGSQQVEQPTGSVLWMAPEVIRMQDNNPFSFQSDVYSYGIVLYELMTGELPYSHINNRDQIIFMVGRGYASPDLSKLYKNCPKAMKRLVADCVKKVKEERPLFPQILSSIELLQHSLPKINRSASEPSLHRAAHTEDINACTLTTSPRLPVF
T1 sequence (P15056 whole entry): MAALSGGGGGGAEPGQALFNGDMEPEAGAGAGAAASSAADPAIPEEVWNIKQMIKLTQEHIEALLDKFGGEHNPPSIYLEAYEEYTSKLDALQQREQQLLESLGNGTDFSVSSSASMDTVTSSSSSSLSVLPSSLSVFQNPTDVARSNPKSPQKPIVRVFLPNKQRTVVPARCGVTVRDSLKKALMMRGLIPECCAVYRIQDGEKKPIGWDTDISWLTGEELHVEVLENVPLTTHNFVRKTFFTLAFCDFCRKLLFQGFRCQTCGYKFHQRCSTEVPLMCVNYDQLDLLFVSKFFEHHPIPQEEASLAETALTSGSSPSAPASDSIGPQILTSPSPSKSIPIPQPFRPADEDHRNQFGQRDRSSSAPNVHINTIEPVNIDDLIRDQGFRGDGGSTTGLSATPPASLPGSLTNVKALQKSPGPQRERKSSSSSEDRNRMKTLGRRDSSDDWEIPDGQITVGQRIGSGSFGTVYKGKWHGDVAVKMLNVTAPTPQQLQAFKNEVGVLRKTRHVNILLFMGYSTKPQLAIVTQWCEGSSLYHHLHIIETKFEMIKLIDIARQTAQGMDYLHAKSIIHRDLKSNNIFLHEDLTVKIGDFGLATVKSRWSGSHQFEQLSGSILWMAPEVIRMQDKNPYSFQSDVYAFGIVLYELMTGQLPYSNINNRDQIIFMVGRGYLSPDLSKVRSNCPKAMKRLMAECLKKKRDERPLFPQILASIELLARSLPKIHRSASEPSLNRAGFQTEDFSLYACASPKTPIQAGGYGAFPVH
Sequence of GST-PBD367-603 of Plk1 (P53350 367-603): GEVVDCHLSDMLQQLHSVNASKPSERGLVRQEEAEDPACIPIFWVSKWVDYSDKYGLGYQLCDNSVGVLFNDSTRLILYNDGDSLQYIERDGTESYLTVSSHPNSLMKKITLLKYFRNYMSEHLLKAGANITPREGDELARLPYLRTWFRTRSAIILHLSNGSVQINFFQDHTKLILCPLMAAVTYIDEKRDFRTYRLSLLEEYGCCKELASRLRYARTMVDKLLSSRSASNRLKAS

Primary screen CRAF-BRAF (transient) % Inihibition (CRAF-BRAF)	Primary screen CRAF-BRAF (transient) % Quench RLuc (CRAF-BRAF)	Confirmation CRAF-BRAF (transient) % Inihibition (CRAF-BRAF)	Confirmation CRAF-BRAF (transient) % Quench RLuc (CRAF-BRAF)	Average-Beads (mean luminescence) (Plk1-Map interaction [3])	Co-IP Values relative to top in plate column = 1 (Plk1-Map interaction [3])	Relative Luminescence Unit (Plk1-Map interaction [3])	Luminescence on beads, duplicate wells (Plk1-Map interaction [3])	Primary screen Plk1-Map (stable) % Inihibition (Plk1-Map interaction [4])	Primary screen Plk1-Map (stable) % Quench RLuc (Plk1-Map interaction [4])	Confirmation Plk1-Map (stable) % Inihibition (Plk1-Map interaction [4])	Confirmation Plk1-Map (stable) % Quench RLuc (Plk1-Map interaction [4])	Confirmation Plk1-Map (transient) % Inihibition (Plk1-Map interaction [5])	Confirmation Plk1-Map (transient) % Quench RLuc (Plk1-Map interaction [5])	FP - IC50 (μM) (GST-PBD367-603 of Plk1; Table S3)	SMILES	Mitotic index (%) (HeLa cells [2])	further results
–	–	–	–	–	–	–	–	–	–	–	–	–	–	–	CC[C@@H]1C(=O)N(C)c2cnc(Nc3ccc(C(=O)NC4CCN(C)CC4)cc3OC)nc2N1C1CCCC1 [BI2536]	–	2 > pericentrin foci (percentage of cells) (HeLa cells [1]): 3 ± 2%; Disorganized spindles (percentage of cells) (HeLa cells [1]): 55 ± 8%
31.50%	81.13%	-4.59%	86.14%	18,942	0.017	0.017	18,060 and 19,824	67.91%	84.93%	41.55%	78.03%	53.01%	72.97%	–	N#Cc1cccnc1S(=O)(=O)CCOC(=O)c1cccc(Cl)c1 [Cpd 15]	0.81%	IC50 (GST-PBD367-603 of Plk1; FP - IC50 (μM), Table S3): 5.7 ± 2.8 µM; IC50 (GST-PBD367-603 of Plk1; IC50 in FP, GST-PBD367-603 38 nM, 1 h pre-incubation, FITC-phosphopeptide 10 nM, Fig. 4C): 6 µM
16.40%	63.54%	19.45%	66.12%	601,974	0.219	0.219	584,340 and 619,608	53.18%	82.37%	30.35%	91.04%	-29.25%	72.57%	–	COc1ccc(-c2oc3ccccc3c(=O)c2OS(=O)(=O)c2ccccc2)cc1 [Cpd 46]	29.44%	–
–	–	–	–	–	–	–	–	–	–	–	–	–	–	–	Cc1cc(C(F)(F)F)cc(S(=O)(=O)CCOC(=O)c2cc(Cl)cc(Cl)c2)n1 [Cpd 156]	–	IC50 (GST-PBD367-603 of Plk1; read-out: FP - IC50, Table S3): 48.1 µM
–	–	–	–	–	–	–	–	–	–	–	–	–	–	No inhibition	Cc1cc(C(F)(F)F)cc(SCCOCc2cccc(Cl)c2)n1 [Cpd 157]	–	–
–	–	–	–	–	–	–	–	–	–	–	–	–	–	No inhibition	Cc1cc(C(F)(F)F)cc(S(=O)(=O)CCO)n1 [Cpd 158, 2-((6-methyl-4-(trifluoromethyl)pyridin-2-yl)sulfonyl)ethanol]	–	activity in the FP assay (GST-PBD367-603 of Plk1; SAR): completely abrogated activity
